Results taken from PMC9612054, “Experimental and Computational Analysis of Newly Synthesized Benzotriazinone Sulfonamides as Alpha-Glucosidase Inhibitors” (Molecules, 2022).

What was measured:
[1] = Solubility (physiochemical properties); type: physicochemical; conditions: solvents in which the compound is soluble
[2] = molecular target: T1, alpha-Glucosidase (Cat No. 5003-1KU Type I) (Saccharomyces cerevisiae, UniProt P53341); test: biochemical; conditions: for inhibition at 500 µM: pH 6.8, read-out: % Inhibition at 0.5 mM
T1 construct: purchased 5003-1KU Type I
T1 sequence (P53341 whole entry): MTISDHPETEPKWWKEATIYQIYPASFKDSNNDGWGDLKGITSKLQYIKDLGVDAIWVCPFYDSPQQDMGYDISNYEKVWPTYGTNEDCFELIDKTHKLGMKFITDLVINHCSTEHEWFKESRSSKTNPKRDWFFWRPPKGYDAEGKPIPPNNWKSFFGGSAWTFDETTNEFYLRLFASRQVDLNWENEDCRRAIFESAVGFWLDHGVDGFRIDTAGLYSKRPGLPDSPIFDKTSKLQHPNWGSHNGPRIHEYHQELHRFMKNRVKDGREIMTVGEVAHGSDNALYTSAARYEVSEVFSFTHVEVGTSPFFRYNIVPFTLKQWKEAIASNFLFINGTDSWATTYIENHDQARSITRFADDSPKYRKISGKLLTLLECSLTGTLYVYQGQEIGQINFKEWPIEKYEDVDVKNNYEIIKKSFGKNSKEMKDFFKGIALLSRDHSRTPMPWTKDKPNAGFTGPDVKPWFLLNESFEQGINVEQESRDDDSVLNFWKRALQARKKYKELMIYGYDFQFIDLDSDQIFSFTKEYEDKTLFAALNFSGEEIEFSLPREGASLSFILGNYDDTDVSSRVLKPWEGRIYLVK
Protocol: It actively works in the intestinal tract by inhibiting alpha-glucosidase, which is responsible for the conversion of complex carbohydrates to absorbable glucose. […] Therefore, an alpha-glucosidase inhibition assay of newly synthesized amino benzotriazinones 11a–11b and their corresponding sulfonamides 12a–12f was carried out by spectrophotometric method.
Alpha-glucosidase inhibition activity was carried out by the Pierre et al. method with slight modifications, and alpha-Glucosidase (Cat No. 5003-1KU Type I) from Saccharomyces cereviciae was utilized for the experimental protocol due to its resemblances to the structure and function of yeast/mammalian enzyme. For test, saline phosphate buffer (70 μL, 50 mM with pH 6.8), alpha-glucosidase enzyme (10 μL, 0.0234 units) and test compound (10 μL, 0.5 mM) were taken in test tubes and incubated for 10 min at 37 °C. Absorbance of these prepared samples was recorded at 400 nm. 10 μL p-nitrophenyl-alpha-D-glucopyranoside (0.5 mM, ‘substrate’, code No. N1377 from Sigma) was used to initiate the reaction and test tubes were allowed to stand for 30 min. Then, the variation in concentration of free substrate was noted by the change in absorbance. The enzyme percentage inhibition was estimated by the following formula and IC50 values were calculated by ‘EZ-Fit enzyme kinetics software. % Inhibition = [([…])/Abs. of control] × 100

alpha-glucosidase = molecular target: alpha-glucosidase; set-up: method as in doi:10.1007/s00044-022-02883-1; conditions: earlier series; cited from earlier work

## CCCCn1nnc2ccc(NS(=O)(=O)c3ccc([N+](=O)[O-])cc3)cc2c1=O [Compound 12f, 4-Nitro-N-(4-oxo-3-butyl-3,4-dihydrobenzo[1,2,3]triazin-6 yl)benzenesulfonamide]
[1]
  Solubility: Ethanol, DMSO
[2]
  IC50: 37.75 ± 0.11 µM
  inhibition at 500 µM: 93.27 ± 0.14%
other
  melting point: 179 to 181 °C

## CCCn1nnc2ccc(NS(=O)(=O)c3ccccc3)cc2c1=O [Compound 12a, N-(4-Oxo-3-propyl-3,4-dihydrobenzo[1,2,3]triazin-6-yl)benzenesulfonamide]
[1]
  Solubility: Ethanol, DMSO
[2]
  inhibition at 500 µM: 51.25 ± 0.16%
other
  melting point: 171 to 173 °C

## CCCn1nnc2ccc([N+](=O)[O-])cc2c1=O [Compound 10a, 6-Nitro-3-propylbenzo[1,2,3]triazin-4(3H)-one]
[1]
  Solubility: Ethanol, DMSO
other
  melting point: 215 to 217 °C

## CCCNC(=O)c1cc([N+](=O)[O-])ccc1N [Compound 9a, 2-Amino-5-nitro-N-propylbenzamide]
[1]
  Solubility: Ethanol, DMSO
other
  melting point: 195 to 197 °C

## CCCn1nnc2ccc(NS(=O)(=O)c3ccc(Br)cc3)cc2c1=O [Compound 12d, 4-Bromo-N-(4-oxo-3-propyl-3,4-dihydrobenzo[1,2,3]triazin-6-yl)benzenesulfonamide]
[1]
  Solubility: Ethanol, DMSO
[2]
  IC50: 55.21 ± 0.12 µM
  inhibition at 500 µM: 79.42 ± 0.15%

## Cc1ccc(NS(=O)(=O)c2ccc(-n3nnc4ccccc4c3=O)cc2)cc1C [Compound 4]
alpha-glucosidase
  IC50: 29.75 ± 0.14 µM

## 6-Nitroisatoic Anhydride [Compound 8]
[1]
  Solubility: Ethanol, DMSO

## CCCn1nnc2ccc(NS(=O)(=O)c3ccc(OC)cc3)cc2c1=O [Compound 12b, 4-Methoxy-N-(4-oxo-3-propyl-3,4-dihydrobenzo[1,2,3]triazin-6-yl)benzenesulfonmide]
[1]
  Solubility: Ethanol, DMSO
[2]
  IC50: 39.21 ± 0.12 µM
  inhibition at 500 µM: 91.73 ± 0.17%
other
  melting point: 175 to 177 °C

## CCCn1nnc2ccc(NS(=O)(=O)c3ccc(Cl)cc3)cc2c1=O [Compound 12c, 4-Chloro-N-(4-oxo-3-propyl-3,4-dihydrobenzo[1,2,3]triazin-6-yl)benzenesulfonamide]
[1]
  Solubility: Ethanol, DMSO
[2]
  IC50: 53.76 ± 0.14 µM
  inhibition at 500 µM: 78.12 ± 0.16%
other
  melting point: 169 to 171 °C

## CCCn1nnc2ccc(N)cc2c1=O [Compound 11a, 6-Amino-3-propylbenzo[1,2,3]triazin-4(3H)-one]
[1]
  Solubility: Methanol, DMSO
[2]
  inhibition at 500 µM: 26.12 ± 0.13%
other
  melting point: 185 to 186 °C

## CCCCNC(=O)c1cc([N+](=O)[O-])ccc1N [Compound 9b, 2-Amino-5-nitro-N-butylbenzamide]
[1]
  Solubility: Ethanol, DMSO
other
  melting point: 197 to 199 °C

## C[C@H]1O[C@H](O[C@H]2[C@H](O)[C@@H](O)[C@@H](O[C@H]3[C@H](O)[C@@H](O)C(O)O[C@@H]3CO)O[C@@H]2CO)[C@H](O)[C@@H](O)[C@@H]1N[C@H]1C=C(CO)[C@@H](O)[C@H](O)[C@H]1O (stereo partly shown) [acarbose, reference compound]
[2]; test compound 0.5 mM, pH 6.8, 37 °C
  % Inhibition at 0.5 mM: 92.23 ± 0.16%

## Isatoic Anhydride [Compound 7]
[1]
  Solubility: Ethanol, DMSO

## CCCn1nnc2ccc(NS(=O)(=O)c3ccc([N+](=O)[O-])cc3)cc2c1=O [Compound 12e, 4-Nitro-N-(4-oxo-3-propyl-3,4-dihydrobenzo[1,2,3]triazin-6-yl)benzenesulfonamide]
[1]
  Solubility: Ethanol, DMSO
[2]
  IC50: 32.37 ± 0.15 µM
  inhibition at 500 µM: 96.27 ± 0.19%
other
  melting point: 167 to 169 °C

## CCCCn1nnc2ccc(N)cc2c1=O [Compound 11b, 6-Amino-3-butylbenzo[1,2,3]triazin-4(3H)-one]
[1]
  Solubility: Methanol, DMSO
[2]
  inhibition at 500 µM: 27.12 ± 0.13%
other
  melting point: 191 to 192 °C

## CCCCn1nnc2ccc([N+](=O)[O-])cc2c1=O [Compound 10b, 6-Nitro-3-butylbenzo[1,2,3]triazin-4(3H)-one]
[1]
  Solubility: Ethanol, DMSO
other
  melting point: 217 to 218 °C
